# Reference: ChEMBL document CHEMBL1909046, “DrugMatrix in vitro pharmacology data”
# Tests used:
# Leukotriene C4 synthase = molecular target: T1, Leukotriene C4 synthase (Cavia porcellus, UniProt A6XA80); assay: biochemical; type: tissue-based, Lung;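 also: enzyme inhibition assay of leukotriene C4 synthase, using LTA4 as the substrate; in other assays of this panel Not Active means under 50% inhibition at 10 µM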
# T1 sequence (A6XA80 whole entry): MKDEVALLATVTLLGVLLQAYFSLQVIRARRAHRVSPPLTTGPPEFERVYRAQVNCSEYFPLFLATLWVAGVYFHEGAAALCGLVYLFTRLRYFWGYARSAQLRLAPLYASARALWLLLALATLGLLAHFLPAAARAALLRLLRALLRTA
# [1] = molecular target: Beta-2 adrenergic receptor (Homo sapiens, UniProt P07550); assay: DRUGMATRIX: Adrenergic beta2 radioligand binding (ligand: [3H] CGP-12177); type: cell membranes, Membrane; details: cho; Not Active = under 50% inhibition at 10 µM
# [2] = molecular target: T2, 5-hydroxytryptamine receptor 1A (Rattus norvegicus, UniProt P19327); type: cell membranes, CHO-K1, Membrane; also: in other assays of this panel Not Active means under 50% inhibition at 10 µM
# T2 sequence (P19327 whole entry): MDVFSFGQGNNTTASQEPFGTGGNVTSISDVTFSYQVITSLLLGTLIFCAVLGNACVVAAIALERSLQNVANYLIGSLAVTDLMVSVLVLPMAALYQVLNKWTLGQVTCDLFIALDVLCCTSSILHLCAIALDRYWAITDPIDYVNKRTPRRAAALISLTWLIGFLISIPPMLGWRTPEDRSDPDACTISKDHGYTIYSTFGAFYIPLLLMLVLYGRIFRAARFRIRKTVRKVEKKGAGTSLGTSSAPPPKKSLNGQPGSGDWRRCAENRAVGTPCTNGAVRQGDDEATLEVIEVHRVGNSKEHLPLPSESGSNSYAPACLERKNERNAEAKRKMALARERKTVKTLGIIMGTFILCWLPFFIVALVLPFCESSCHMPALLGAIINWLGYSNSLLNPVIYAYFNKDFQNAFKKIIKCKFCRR
# [3] = molecular target: Vascular endothelial growth factor receptor 1 (Homo sapiens, UniProt P17948); type: cell-based; details: huvec; also: in other assays of this panel Not Active means under 50% inhibition at 10 µM
# Vascular endothelial growth factor receptor 1, sequence (P17948 whole entry): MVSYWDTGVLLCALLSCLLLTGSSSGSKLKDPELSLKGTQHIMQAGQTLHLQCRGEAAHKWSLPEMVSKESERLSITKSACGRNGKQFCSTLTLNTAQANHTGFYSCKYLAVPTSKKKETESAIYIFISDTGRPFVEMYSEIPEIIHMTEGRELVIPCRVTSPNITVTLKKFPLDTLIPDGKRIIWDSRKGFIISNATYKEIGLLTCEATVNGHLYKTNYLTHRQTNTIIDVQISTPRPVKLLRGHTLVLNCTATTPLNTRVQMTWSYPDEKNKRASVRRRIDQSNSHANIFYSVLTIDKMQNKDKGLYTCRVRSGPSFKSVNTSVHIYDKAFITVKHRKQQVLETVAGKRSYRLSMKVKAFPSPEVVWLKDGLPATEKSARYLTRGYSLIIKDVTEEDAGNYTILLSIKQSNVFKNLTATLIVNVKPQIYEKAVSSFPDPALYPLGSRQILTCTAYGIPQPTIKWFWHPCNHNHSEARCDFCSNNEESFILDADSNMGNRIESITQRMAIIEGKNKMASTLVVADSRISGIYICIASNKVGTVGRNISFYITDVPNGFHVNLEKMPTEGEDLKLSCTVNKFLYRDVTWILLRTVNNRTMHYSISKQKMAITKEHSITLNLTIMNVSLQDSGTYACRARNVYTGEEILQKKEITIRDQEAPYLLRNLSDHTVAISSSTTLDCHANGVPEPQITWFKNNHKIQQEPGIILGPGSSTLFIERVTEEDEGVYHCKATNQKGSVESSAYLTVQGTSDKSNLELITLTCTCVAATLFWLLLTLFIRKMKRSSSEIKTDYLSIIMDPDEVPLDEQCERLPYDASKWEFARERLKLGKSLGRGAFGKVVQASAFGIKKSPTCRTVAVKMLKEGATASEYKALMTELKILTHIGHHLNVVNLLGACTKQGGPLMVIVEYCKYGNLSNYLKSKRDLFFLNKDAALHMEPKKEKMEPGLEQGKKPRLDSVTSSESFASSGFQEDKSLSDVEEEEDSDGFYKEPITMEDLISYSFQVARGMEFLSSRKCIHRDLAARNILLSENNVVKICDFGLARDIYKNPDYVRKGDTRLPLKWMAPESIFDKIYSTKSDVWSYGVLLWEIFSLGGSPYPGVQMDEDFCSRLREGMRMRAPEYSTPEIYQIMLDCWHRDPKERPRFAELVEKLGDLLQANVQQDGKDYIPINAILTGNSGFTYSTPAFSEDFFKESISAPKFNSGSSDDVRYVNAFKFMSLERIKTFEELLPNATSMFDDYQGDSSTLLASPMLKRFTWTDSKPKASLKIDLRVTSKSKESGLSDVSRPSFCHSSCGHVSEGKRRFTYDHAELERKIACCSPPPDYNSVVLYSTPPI
# Carbonic anhydrase 2 = Carbonic anhydrase 2 (Homo sapiens, UniProt P00918); assay: DRUGMATRIX: Carbonic Anhydrase II enzyme inhibition (substrate: 4-Nitrophenyl acetate (4-NPA)); type: tissue-based, Erythrocyte; details: Not Active = under 50% inhibition at 10 µM
# [4] = molecular target: T3, Muscarinic acetylcholine receptor M5 (Homo sapiens, UniProt P08912); type: cell membranes, CHO-K1, Membrane; also: in other assays of this panel Not Active means under 50% inhibition at 10 µM
# T3 sequence (P08912 whole entry): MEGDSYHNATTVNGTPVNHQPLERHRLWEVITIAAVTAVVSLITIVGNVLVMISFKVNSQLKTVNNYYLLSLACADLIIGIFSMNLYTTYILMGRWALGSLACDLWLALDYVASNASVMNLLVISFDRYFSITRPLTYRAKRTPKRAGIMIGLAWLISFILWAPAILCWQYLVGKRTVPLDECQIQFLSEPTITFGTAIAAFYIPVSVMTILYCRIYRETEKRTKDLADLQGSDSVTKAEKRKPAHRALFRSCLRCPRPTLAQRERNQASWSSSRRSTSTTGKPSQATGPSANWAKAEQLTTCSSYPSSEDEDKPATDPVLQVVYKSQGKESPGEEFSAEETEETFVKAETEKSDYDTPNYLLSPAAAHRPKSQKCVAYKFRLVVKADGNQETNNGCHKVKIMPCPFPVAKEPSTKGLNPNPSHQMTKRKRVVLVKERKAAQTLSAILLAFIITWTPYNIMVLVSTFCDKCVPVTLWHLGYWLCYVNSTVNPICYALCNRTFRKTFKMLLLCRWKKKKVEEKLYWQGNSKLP
# [5] = molecular target: T4, Cysteinyl leukotriene receptor 1 (Homo sapiens, UniProt Q9Y271); type: cell membranes, CHO-K1, Membrane; also: in other assays of this panel Not Active means under 50% inhibition at 10 µM
# T4 sequence (Q9Y271 whole entry): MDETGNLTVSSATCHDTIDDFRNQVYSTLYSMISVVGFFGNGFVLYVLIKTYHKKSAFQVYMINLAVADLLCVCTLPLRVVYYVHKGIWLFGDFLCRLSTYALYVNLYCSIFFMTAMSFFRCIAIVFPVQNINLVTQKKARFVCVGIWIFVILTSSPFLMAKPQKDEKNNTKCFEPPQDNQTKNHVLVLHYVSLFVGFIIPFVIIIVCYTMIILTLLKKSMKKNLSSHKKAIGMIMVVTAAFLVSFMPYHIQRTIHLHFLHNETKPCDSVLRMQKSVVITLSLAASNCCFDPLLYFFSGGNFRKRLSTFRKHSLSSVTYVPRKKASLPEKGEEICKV
# [6] = molecular target: Tyrosine-protein kinase Fyn (Homo sapiens, UniProt P06241); assay: biochemical; type: cell-based, Insect cells
# Tyrosine-protein kinase Fyn, sequence (P06241 whole entry): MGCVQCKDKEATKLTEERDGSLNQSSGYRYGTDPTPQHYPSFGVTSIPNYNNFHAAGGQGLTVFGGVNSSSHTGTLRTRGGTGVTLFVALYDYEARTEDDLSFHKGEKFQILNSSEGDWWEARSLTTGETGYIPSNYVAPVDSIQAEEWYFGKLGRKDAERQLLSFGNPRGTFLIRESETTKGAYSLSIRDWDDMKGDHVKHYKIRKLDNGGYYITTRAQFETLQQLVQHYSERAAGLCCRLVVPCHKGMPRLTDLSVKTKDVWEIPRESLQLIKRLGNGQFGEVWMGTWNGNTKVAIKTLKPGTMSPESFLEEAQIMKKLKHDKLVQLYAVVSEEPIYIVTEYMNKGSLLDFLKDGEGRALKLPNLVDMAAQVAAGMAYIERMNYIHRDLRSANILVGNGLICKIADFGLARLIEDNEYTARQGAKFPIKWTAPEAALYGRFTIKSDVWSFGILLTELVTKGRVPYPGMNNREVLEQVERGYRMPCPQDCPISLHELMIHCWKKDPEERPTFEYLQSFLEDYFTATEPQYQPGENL
# [7] = molecular target: Protein kinase C alpha type (Homo sapiens, UniProt P17252); type: cell-based; details: sf9
# [8] = molecular target: Aldo-keto reductase family 1 member B1 (Rattus norvegicus, UniProt P07943); type: tissue-based, Lens of camera-type eye
# [9] = molecular target: Kappa-type opioid receptor (Homo sapiens, UniProt P41145); assay: DRUGMATRIX: Opiate kappa (OP2, KOP) radioligand binding (ligand: [3H] Diprenorphine); type: cell membranes, HEK293, Membrane; details: Not Active = under 50% inhibition at 10 µM
# Kappa-type opioid receptor, sequence (P41145 whole entry): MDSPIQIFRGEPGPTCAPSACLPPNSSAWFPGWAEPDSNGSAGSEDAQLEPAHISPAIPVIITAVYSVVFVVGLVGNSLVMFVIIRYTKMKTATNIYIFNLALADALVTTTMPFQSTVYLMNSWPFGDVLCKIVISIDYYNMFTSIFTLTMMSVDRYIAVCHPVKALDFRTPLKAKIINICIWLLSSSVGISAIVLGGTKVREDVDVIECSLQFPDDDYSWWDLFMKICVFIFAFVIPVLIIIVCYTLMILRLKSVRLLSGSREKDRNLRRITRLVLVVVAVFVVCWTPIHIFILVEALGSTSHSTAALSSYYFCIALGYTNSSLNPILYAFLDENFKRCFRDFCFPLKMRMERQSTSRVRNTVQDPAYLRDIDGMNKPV
# Melanocortin receptor 3 = Melanocortin receptor 3 (Homo sapiens, UniProt P41968); type: cell membranes, Membrane; details: hek293; also: in other assays of this panel Not Active means under 50% inhibition at 10 µM
# Melanocortin receptor 3, sequence (P41968 whole entry): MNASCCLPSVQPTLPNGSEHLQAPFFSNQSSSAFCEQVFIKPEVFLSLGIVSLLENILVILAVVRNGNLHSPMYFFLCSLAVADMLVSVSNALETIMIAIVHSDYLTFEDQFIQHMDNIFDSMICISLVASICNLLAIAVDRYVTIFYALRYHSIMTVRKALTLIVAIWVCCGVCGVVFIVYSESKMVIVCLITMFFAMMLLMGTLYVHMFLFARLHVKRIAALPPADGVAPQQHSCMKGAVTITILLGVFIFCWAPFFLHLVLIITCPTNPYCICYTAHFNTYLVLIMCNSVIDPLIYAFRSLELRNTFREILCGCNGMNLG
# Adenosine receptor A3 = molecular target: T5, Adenosine receptor A3 (Homo sapiens, UniProt P0DMS8); type: cell membranes, CHO-K1, Membrane
# T5 sequence (P0DMS8 whole entry): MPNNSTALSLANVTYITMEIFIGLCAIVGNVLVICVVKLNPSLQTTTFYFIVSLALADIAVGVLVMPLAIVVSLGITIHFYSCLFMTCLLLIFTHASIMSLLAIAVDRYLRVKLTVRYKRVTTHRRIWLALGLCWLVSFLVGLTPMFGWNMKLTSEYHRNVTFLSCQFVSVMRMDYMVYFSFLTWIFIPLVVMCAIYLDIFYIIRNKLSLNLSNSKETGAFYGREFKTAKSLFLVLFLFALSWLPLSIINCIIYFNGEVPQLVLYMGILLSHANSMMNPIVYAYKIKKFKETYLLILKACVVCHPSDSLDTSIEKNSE
# [10] = DRUGMATRIX: GABAA, Chloride Channel, TBOB radioligand binding (ligand: [3H] TBOB); type: cell membranes, Rattus norvegicus, Wistar, Cerebral cortex, Membrane; details: Not Active = under 50% inhibition at 10 µM
# [11] = DRUGMATRIX: Phosphodiesterase PDE3 enzyme inhibition (substrate: [3H]cAMP + cAMP); type: tissue-based, Homo sapiens; details: platelet; Not Active = under 50% inhibition at 10 µM
# [12] = DRUGMATRIX: ATPase, Na+/K+ enzyme inhibition (substrate: ATP); type: tissue-based, Sus scrofa, Heart; details: Not Active = under 50% inhibition at 10 µM
# [13] = DRUGMATRIX: Potassium Channel [KATP] radioligand binding (ligand: [3H] Glyburide); type: cell membranes, Membrane; details: hit-t15; Not Active = under 50% inhibition at 10 µM
Molecule,IC50 (Leukotriene C4 synthase),IC50 [1],IC50 [3],IC50 (Carbonic anhydrase 2; erythrocyte),IC50 ([5]; cho-k1),IC50 ([6]; read-out: IC50),IC50 [7],IC50 [8],IC50 (Melanocortin receptor 3),IC50 ([2]; cho-k1),IC50 [10],Ki [10],IC50 [11],Ki [11],IC50 ([4]; cho-k1),IC50 [12],Ki [12],IC50 [13],IC50 ([6]; insect cells),IC50 (Adenosine receptor A3; cho-k1),further results
COc1ccc(CCN2CCC(Nc3nc4ccccc4n3Cc3ccc(F)cc3)CC2)cc1 [ASTEMIZOLE],Not Active,Not Active,Not Active,Not Active,Not Active,2.85 µM,Not Active,Not Active,,,,,,,,,,,,,IC50 ([2]; read-out: IC50): 0.767 µM; Ki ([2]; read-out: Ki): 0.438 µM; IC50 ([4]; read-out: IC50): 0.703 µM; Ki ([4]; read-out: Ki): 0.505 µM
Clc1ccccc1C(c1ccccc1)(c1ccccc1)n1ccnc1 [CLOTRIMAZOLE],Not Active,,Not Active,,,31.9 µM,Not Active,Not Active,Not Active,,,,,,,,,,,,Ki [9]: 2.52 µM; IC50 ([9]; read-out: IC50): 6.3 µM; IC50 ([2]; read-out: IC50): 17.7 µM; Ki ([2]; read-out: Ki): 10.1 µM; IC50 (Carbonic anhydrase 2; read-out: IC50): 30.1 µM; IC50 ([5]; read-out: IC50): 33.2 µM; Ki ([5]; read-out: Ki): 16.6 µM; IC50 (Adenosine receptor A3; read-out: IC50): 4.75 µM; Ki (Adenosine receptor A3; read-out: Ki): 2.69 µM
CC(C)(O)c1ccccc1CC[C@@H](SCC1(CC(=O)O)CC1)c1cccc(/C=C/c2ccc3ccc(Cl)cc3n2)c1 [MONTELUKAST],Not Active,,Not Active,Not Active,,4.7 µM,Not Active,Not Active,Not Active,Not Active,,,,,,,,,,,IC50 ([9]; hek293): Not Active
NNc1ccccc1 [PHENYLHYDRAZINE],Not Active,Not Active,Not Active,Not Active,Not Active,,Not Active,Not Active,Not Active,Not Active,Not Active,Not Active,Not Active,Not Active,Not Active,Not Active,Not Active,Not Active,Not Active,Not Active,Ki [13]: Not Active
O=[N+]([O-])c1cc([As](=O)(O)O)ccc1O [ROXARSONE],Not Active,Not Active,Not Active,Not Active,Not Active,,Not Active,Not Active,Not Active,Not Active,Not Active,Not Active,Not Active,Not Active,Not Active,Not Active,Not Active,Not Active,Not Active,Not Active,Ki (Leukotriene C4 synthase): Not Active; Ki [1]: Not Active; Ki ([2]; cho-k1): Not Active; Ki [3]: Not Active; Ki (Carbonic anhydrase 2; erythrocyte): Not Active; Ki (Melanocortin receptor 3): Not Active; Ki ([4]; cho-k1): Not Active; Ki ([5]; cho-k1): Not Active; Ki [13]: Not Active; Ki ([6]; insect cells): Not Active; Ki (Adenosine receptor A3; cho-k1): Not Active; Ki [7]: Not Active; Ki [8]: Not Active
CSc1ccc2c(c1)N(CCC1CCCCN1C)c1ccccc1S2 (centres undefined) [THIORIDAZINE],Not Active,Not Active,Not Active,Not Active,Not Active,5.05 µM,Not Active,Not Active,Not Active,,,,,,,,,,,Not Active,IC50 ([2]; read-out: IC50): 0.06 µM; Ki ([2]; read-out: Ki): 0.034 µM
COc1cccc(C2(O)CCCCC2CN(C)C)c1 (centres undefined) [TRAMADOL],Not Active,Not Active,Not Active,Not Active,Not Active,,Not Active,Not Active,Not Active,Not Active,,,,,Not Active,,,,Not Active,Not Active,
COc1ccc(C(CN(C)C)C2(O)CCCCC2)cc1 (centres undefined) [VENLAFAXINE],Not Active,Not Active,Not Active,Not Active,Not Active,,Not Active,Not Active,Not Active,Not Active,Not Active,Not Active,Not Active,Not Active,Not Active,Not Active,Not Active,Not Active,Not Active,Not Active,Ki [13]: Not Active
IVERMECTIN,Not Active,Not Active,Not Active,Not Active,Not Active,,Not Active,Not Active,Not Active,Not Active,Not Active,Not Active,Not Active,Not Active,,Not Active,Not Active,Not Active,Not Active,,"Ki (Leukotriene C4 synthase): Not Active; Ki [1]: Not Active; Ki ([2]; cho-k1): Not Active; Ki [3]: Not Active; Ki (Carbonic anhydrase 2; erythrocyte): Not Active; Ki (Melanocortin receptor 3): Not Active; IC50 ([4]; cho-k1, read-out: IC50): 3.61 µM; Ki ([4]; cho-k1, read-out: Ki): 2.59 µM; Ki ([5]; cho-k1): Not Active; Ki [13]: Not Active; Ki ([6]; insect cells): Not Active; IC50 (Adenosine receptor A3; cho-k1, read-out: IC50): 0.512 µM; Ki (Adenosine receptor A3; cho-k1, read-out: Ki): 0.289 µM; Ki [7]: Not Active; Ki [8]: Not Active"
